Laboratory results as given in patent US7879876B2, “Sulfonamide derivatives and use thereof for the modulation of metalloproteinases” (Merck Serono SA, priority 2005, dated 2011).

Columns and labels:
Type in all cases: biochemical
[1] = target: 92 kDa gelatinase (MMP-9) (Homo sapiens, UniProt P14780); assay: MMP-9 enzyme inhibition assay (coumarin-labeled peptide substrate); conditions: @ 5 μM; read-out: percentage inhibition MMP9
Summary of the method: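 Recombinant human MMP-9 (APMA-activated if needed) was assayed in 100 mM Tris-HCl pH 7.6, 100 mM NaCl, 10 mM CaCl2, 0.05% Brij 35, with McaPLGLDpaAR substrate at 37° C. for 2 h. Fluorescence was read at ex 320/em 405 nm over ten 3-fold compound doses (100 μM–5.1 nM) in duplicate. IC50 came from a four-parameter fit.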

[2] = target: human ADAM17 (TACE) (Homo sapiens, UniProt P78536); assay: TACE enzyme inhibition assay
Summary of the method: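 Recombinant human ADAM17 was run in 20 mM HEPES pH 7.5 with 0.05% Brij 35, using Mca/Dnp-TNF-alpha(−5 to +6) amide substrate (5 μM solution), for 1.5 h at room temperature. Fluorescence (ex 355/em 405 nm) was read unstopped over ten concentrations (100 μM–0.01 nM). IC50 came from a four-parameter fit, rounded to one significant figure.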

[3] = target: T1, collagenase (MMP-1) (Homo sapiens, UniProt P03956); assay: MMP-1 enzyme inhibition assay (coumarin-labelled peptide substrate); conditions: @ 5 μM; read-out: percentage inhibition MMP1
T1 sequence (P03956 100-469): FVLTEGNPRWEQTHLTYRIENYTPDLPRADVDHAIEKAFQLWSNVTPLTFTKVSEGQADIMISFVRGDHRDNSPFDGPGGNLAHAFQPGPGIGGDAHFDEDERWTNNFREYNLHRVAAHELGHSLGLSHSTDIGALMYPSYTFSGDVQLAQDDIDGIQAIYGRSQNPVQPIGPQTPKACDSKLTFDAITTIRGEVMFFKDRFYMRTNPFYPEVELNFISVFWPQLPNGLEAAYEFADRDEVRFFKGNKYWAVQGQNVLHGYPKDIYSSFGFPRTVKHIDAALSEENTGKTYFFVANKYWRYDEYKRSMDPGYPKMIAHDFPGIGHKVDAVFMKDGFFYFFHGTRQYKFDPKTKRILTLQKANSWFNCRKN
Summary of the method: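 Recombinant human MMP-1, APMA-activated if needed, in Tris-HCl pH 7.6 with NaCl, CaCl2 and 0.05% Brij 35; McaPLGLDpaAR substrate added as 8 μM solution, 2 h at 37 °C. Fluorescence (320/405 nm) read without stopping; IC50 from 10 duplicate concentrations (100 μM–5.1 nM) by four-parameter fit.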

92 kDa gelatinase (MMP-9), sequence (P14780 107-707 limits assumed): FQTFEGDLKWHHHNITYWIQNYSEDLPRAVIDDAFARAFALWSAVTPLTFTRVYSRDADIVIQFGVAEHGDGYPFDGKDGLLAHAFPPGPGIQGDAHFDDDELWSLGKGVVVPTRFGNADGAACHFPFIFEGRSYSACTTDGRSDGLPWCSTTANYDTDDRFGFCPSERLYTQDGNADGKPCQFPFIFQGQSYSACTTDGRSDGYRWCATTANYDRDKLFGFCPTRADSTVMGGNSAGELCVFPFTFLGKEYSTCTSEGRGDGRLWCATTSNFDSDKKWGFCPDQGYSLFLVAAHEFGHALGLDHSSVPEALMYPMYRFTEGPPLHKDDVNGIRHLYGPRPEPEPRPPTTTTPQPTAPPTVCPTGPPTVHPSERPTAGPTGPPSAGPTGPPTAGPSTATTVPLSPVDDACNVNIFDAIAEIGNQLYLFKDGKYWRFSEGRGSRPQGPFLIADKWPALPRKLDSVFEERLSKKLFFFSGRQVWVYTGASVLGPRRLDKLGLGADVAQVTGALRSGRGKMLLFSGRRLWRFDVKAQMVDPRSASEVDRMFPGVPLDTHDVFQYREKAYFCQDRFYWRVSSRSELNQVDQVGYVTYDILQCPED
human ADAM17 (TACE), sequence (P78536 215-824): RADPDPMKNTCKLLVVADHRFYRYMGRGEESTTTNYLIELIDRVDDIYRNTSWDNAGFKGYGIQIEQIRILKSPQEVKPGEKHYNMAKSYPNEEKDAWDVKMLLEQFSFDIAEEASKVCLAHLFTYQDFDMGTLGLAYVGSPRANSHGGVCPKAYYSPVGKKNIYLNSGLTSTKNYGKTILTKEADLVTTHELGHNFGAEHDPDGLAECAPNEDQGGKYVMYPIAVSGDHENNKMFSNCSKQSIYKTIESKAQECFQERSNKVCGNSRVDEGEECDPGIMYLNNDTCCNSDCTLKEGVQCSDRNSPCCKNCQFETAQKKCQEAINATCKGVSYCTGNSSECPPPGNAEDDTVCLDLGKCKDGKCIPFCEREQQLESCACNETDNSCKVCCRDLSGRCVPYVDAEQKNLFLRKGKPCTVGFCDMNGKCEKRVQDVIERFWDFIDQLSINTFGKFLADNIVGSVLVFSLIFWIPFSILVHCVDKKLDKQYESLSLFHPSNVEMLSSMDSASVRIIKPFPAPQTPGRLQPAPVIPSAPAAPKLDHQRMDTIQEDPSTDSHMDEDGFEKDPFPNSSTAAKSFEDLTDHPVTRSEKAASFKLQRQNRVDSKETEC

SMILES	inhibition at 5 µM [1] [%]	IC50 [2] [nM]	inhibition at 5 µM [3] [%]
O=CN(O)C(CS(=O)(=O)N1Cc2ccccc2C1)C1CC1 (stereo not drawn) [Example 72, N-[1-cyclopropyl-2-(1,3-dihydro-2H-isoindol-2-ylsulfonyl)-ethyl]-N-hydroxyformamide]	28	683	75
O=CN(O)C(CS(=O)(=O)N1CCc2ccc(Cl)cc2C1)C1CC1 (stereo not drawn) [Example 73, N-{2-[(7-chloro-3,4-dihydroisoquinolin-2(1H)-yl)sulfonyl]-1-cyclopropylethyl}-N-hydroxyformamide]	5	88	19
O=CN(O)C(CS(=O)(=O)N1CCc2cc(C(F)(F)F)ccc2C1)C1CC1 (stereo not drawn) [Example 74, N-(1-cyclopropyl-2-{[6-(trifluoromethyl)-3,4-dihydro-isoquinolin-2(1H)-yl]sulfonyl}ethyl)-N-hydroxyformamide]	32	> 5000	44
O=CN(O)C(CS(=O)(=O)N1CCc2ccc(-c3ccc(F)cc3)cc2C1)C1CC1 (stereo not drawn) [Example 75, N-(1-cyclopropyl-2-{[7-(4-fluorophenyl)-3,4-dihydro-isoquinolin-2(1H)-yl]sulfonyl}ethyl)-N-hydroxyformamide]	71	394	0
O=CN(O)C(CCC(F)(F)F)CS(=O)(=O)N1CCc2ccc(Cl)cc2C1 (stereo not drawn) [Example 76, N-(1-{[(7-chloro-3,4-dihydroisoquinolin-2(1H)-yl)-sulfonyl]methyl}-4,4,4-trifluorobutyl)-N-hydroxyformamide]	14	115	43
O=CN(O)C(CS(=O)(=O)N1CCc2cc(Cl)c(Cl)cc2C1)C1CCCC1 (stereo not drawn) [Example 77, N-{1-cyclopentyl-2-[(6,7-dichloro-3,4-dihydroisoquinolin-2(1H)-yl)sulfonyl]ethyl}-N-hydroxyformamide]	35	229	17
O=CN(O)C(CS(=O)(=O)N1CCc2ccc(-c3ccncc3)cc2C1)C1CCCC1 (stereo not drawn) [Example 79, N-{1-cyclopentyl-2-[(7-pyridin-4-yl-3,4-dihydroisoquinolin-2(1H)-yl)sulfonyl]ethyl}-N-hydroxyformamide]	57	587	0
O=CN(O)C(CS(=O)(=O)N1Cc2ccc(F)cc2C1)C1CCCC1 (stereo not drawn) [Example 80, N-{1-cyclopentyl-2-[(5-fluoro-1,3-dihydro-2H-isoindol-2-yl)sulfonyl]ethyl}-N-hydroxyformamide]	0	> 5000	25
CC(C)c1ccc2c(c1)CCN(S(=O)(=O)CC(C1CCCC1)N(O)C=O)C2 (stereo not drawn) [Example 81, N-{1-cyclopentyl-2-[(6-isopropyl-3,4-dihydroisoquinolin-2(1H)-yl)sulfonyl]ethyl}-N-hydroxyformamide]	44	> 5000	3
O=CN(O)C(CS(=O)(=O)N1CCc2ccc(C(F)(F)F)cc2C1)C1CCCC1 (stereo not drawn) [Example 82, N-(1-cyclopentyl-2-{[7-(trifluoromethyl)-3,4-dihydro-isoquinolin-2(1H)-yl]sulfonyl}ethyl)-N-hydroxyformamide]	0	> 5000	10
O=CN(O)C(CS(=O)(=O)N1CCc2ccc(C(F)(F)F)cc2C1)C1CC1 (stereo not drawn) [Example 83, N-(1-cyclopropyl-2-{[7-(trifluoromethyl)-3,4-dihydroisoquinolin-2(1H)-yl]sulfonyl}ethyl)-N-hydroxyformamide]	4	> 5000	4
CC(C)c1ccc2c(c1)CCN(S(=O)(=O)CC(C1CC1)N(O)C=O)C2 (stereo not drawn) [Example 85, N-{1-cyclopropyl-2-[(6-isopropyl-3,4-dihydroisoquinolin-2(1H)-yl)sulfonyl]ethyl}-N-hydroxyformamide]	28	> 5000	5
O=CN(O)C(CCc1cccnc1)CS(=O)(=O)N1CCc2ccc(Cl)cc2C1 (stereo not drawn) [Example 86, N-(1-{[(7-chloro-3,4-dihydroisoquinolin-2(1H)-yl)sulfonyl]methyl}-3-pyridin-3-ylpropyl)-N-hydroxyformamide]	52	59	49
